Reference: patent US20100209536A1, “Methods and Kits for Use in the Treatment and Prevention of Diseases or Conditions of the Immune System or Infectious Diseases” (The Brigham and Women's Hospital, Inc., priority 2006, published 2010)

Columns and labels:
[1] = tested on: cellular response to dexamethasone; details: steroid-resistant asthmatics; cited from earlier work
any wheeze in children = assay: Project Viva vitamin D study: risk of any wheeze during the first three years of life; type: in vivo, human; details: n=416 cases; adjusted for the 12 factors in model A
Text: Project Viva is a prospective cohort study examining prenatal factors in relation to outcomes of pregnancy and child health. Participants were recruited at eight obstetric offices of Harvard Vanguard Medical Associates, a large multispecialty urban/suburban group practice in eastern Massachusetts. At the 1st study visit, directly after the person's initial clinical prenatal visit, we obtained informed consent, administered a brief interview, and provided a take-home self-administered questionnaire. At the 2nd study visit, at 26 to 28 weeks gestation, we again administered a brief interview and provided a questionnaire. Project Viva participants gave birth at Brigham and Women's Hospital or Beth Israel Deaconess Medical Center in Boston. Within 3 days after delivery, we interviewed the mother. […]
We obtained data directly from participants and from medical records, as detailed previously (Yunginger et al., Am. Rev. Respir. Dis. 146:888-894, 1992). Briefly, maternal diet assessment at both the 1st and 2nd visits was based on a validated 166-item semi-quantitative food frequency questionnaire (FFQ) (Fawzi et al., Ann. Epidemiol. 14:754-762, 2004). […] To assess vitamin and supplement intake during the 1st trimester, we administered a separate interview that assessed dose, duration, and brand/type of multivitamin, prescribed prenatal vitamin, and supplements. […]

[2] = tested on: recurrent wheeze in children at age 3 years; assay: Project Viva vitamin D study: maternal intake during pregnancy and risk of recurrent wheeze in children at age 3 years; type: in vivo, human
Text: (§1) Project Viva is a prospective cohort study examining prenatal factors in relation to outcomes of pregnancy and child health. Participants were recruited at eight obstetric offices of Harvard Vanguard Medical Associates, a large multispecialty urban/suburban group practice in eastern Massachusetts. At the 1st study visit, directly after the person's initial clinical prenatal visit, we obtained informed consent, administered a brief interview, and provided a take-home self-administered questionnaire. At the 2nd study visit, at 26 to 28 weeks gestation, we again administered a brief interview and provided a questionnaire. Project Viva participants gave birth at Brigham and Women's Hospital or Beth Israel Deaconess Medical Center in Boston. Within 3 days after delivery, we interviewed the mother. We reassessed mothers and children at 6 months, 1 year, and annually thereafter. At the time of this analysis, age 3 visits were almost complete.
Exclusion criteria included multiple gestation (e.g., twins), inability to answer questions in English, plans to move out of the area before delivery, and gestational age greater than 22 completed weeks at initial prenatal clinical appointment. Additional details of recruitment and follow-up have been presented elsewhere (Yunginger et al., Am. Rev. Respir. Dis. 146:888-894, 1992). Among 2,128 delivered infants in Project Viva, we excluded 228 because of missing first and second trimester diet assessment data and an additional 37 with a gestation of less than 34 completed weeks. […] Of the remaining 1,495 infants, 76 were lost to follow-up and 225 have not yet exited the 3-year time-window, leaving an analysis sample of 1,194 participants. Human subjects committees of Harvard Pilgrim Health Care, Brigham and. Women's Hospital, and Beth Israel Deaconess Medical Center approved the study protocols.
(§2) We obtained data directly from participants and from medical records, as detailed previously (Yunginger et al., Am. Rev. Respir. Dis. 146:888-894, 1992). Briefly, maternal diet assessment at both the 1st and 2nd visits was based on a validated 166-item semi-quantitative food frequency questionnaire (FFQ) (Fawzi et al., Ann. Epidemiol. 14:754-762, 2004). We slightly modified the FFQ for use in pregnancy from the FFQ used in the Nurses' Health Study and other cohort studies (Willett, New York: Oxford University Press; 1998). Modifications for use in pregnancy included changing the time referent, beverage section, and vitamin and supplement assessment. The FFQ used at the 1st visit reflected intakes in the 1st trimester and the time referent was “during this pregnancy.” In addition, we collected information on beverage intake during 2 specified time periods: before and after the participant learned that they were pregnant. To assess vitamin and supplement intake during the 1st trimester, we administered a separate interview that assessed dose, duration, and brand/type of multivitamin, prescribed prenatal vitamin, and supplements. The FFQ used at the 2nd visit (26 to 28 weeks of gestation) reflected intakes during the 2nd trimester; the time referent was “during the past 3 months.” The 2nd trimester instrument was the same as the 1st trimester, except that we assessed use of vitamins/supplements as part of the self-completed FFQ and we collected beverage information during the one time period.
To calculate intake of nutrients, we used the Harvard nutrient composition database (Hu, N. Engl. J. Med. 337:1491-1499, 1997). We calculated vitamin D intake for each FFQ, and the mean of these two values was the assigned exposure for each woman during pregnancy (Rifas-Shiman, Paediatr. Perinat. Epidemiol. 20:35-42, 2006). We used a similar approach for retinol and calcium intakes. For analyses based on foods rather than nutrients, we focused on milk (servings/day), the major contributor to vitamin D intake in the diet. […]

[3] = tested on: respiratory infection in children at age 3 years; assay: Project Viva vitamin D study: risk of respiratory infection in children at age 3 years; type: in vivo, human
Text: as §1, §2
(§3) To calculate intake of nutrients, we used the Harvard nutrient composition database (Hu, N. Engl. J. Med. 337:1491-1499, 1997). We calculated vitamin D intake for each FFQ, and the mean of these two values was the assigned exposure for each woman during pregnancy (Rifas-Shiman, Paediatr. Perinat. Epidemiol. 20:35-42, 2006). We used a similar approach for retinol and calcium intakes. For analyses based on foods rather than nutrients, we focused on milk (servings/day), the major contributor to vitamin D intake in the diet. We also examined foods with possible effects on asthma risk (McKeever et al., Am. J. Respir. Crit. Care Med. 170:725-729, 2004; Devereux et al., J. Allergy Clin. Immunol. 115:1109-1117, 2005): fruits and vegetables (servings/day) and fish (servings/week).
(§4) Finally, we examined two related outcomes: respiratory infection and eczema. We defined “respiratory infection” as a positive response to at least one of three questions on any of the annual questionnaires: “since your child was born (was 12 months old, was 2 years old), have you been told by a health professional that he/she has: (a) bronchiolitis; (b) pneumonia; (c) bronchitis, croup, or any other respiratory infection?” We defined “eczema” as a positive response to one question on any of the annual questionnaires: “have you ever been told by a health care professional that your child has eczema?”
(§5) To assess the associations between vitamin D intake and clinical outcomes, we used multiple logistic regression models. […]

[4] = tested on: eczema in children at age 3 years; assay: Project Viva vitamin D study: risk of eczema in children at age 3 years; type: in vivo, human
Text: as §1, §2, §3, §4, §5

[5] = quartile 2 (median 513 IU) vs quartile 1
[6] = quartile 3 (median 603 IU) vs quartile 1
[7] = quartile 4 (median 724 IU) vs quartile 1

## vitamin D
[1]
  Effect of supplementation on cellular response to dexamethasone: improve the cellular response to dexamethasone
Any wheeze in children
  Odds ratio, any wheeze, per 100 IU increase of maternal intake: 0.89
[2]; LMP in other seasons
  Multivariate OR per 100 IU/day increase, recurrent wheeze: 0.85
[2]; LMP in winter
  Multivariate OR per 100 IU/day increase, recurrent wheeze: 0.62
[2]; maternal intake quartiles, Table 2 model 2 plus child vitamin D intake from foods at 2 years
  Odds ratio, recurrent wheeze, model 2 with further control for child vitamin D intake from foods at 2 years: 0.34
[2]; maternal intake quartiles, Table 2 model 2 plus child vitamin supplement at 6 months
  Odds ratio, recurrent wheeze, model 2 with further control for child use of a vitamin supplement at age 6 months: 0.39
[2]; n=86 cases, adjusted for the 12 factors in model A
  Odds ratio, recurrent wheeze with 4+ wheezing episodes, per 100 IU increase: 0.79
[2]; n=132 cases, adjusted for the 12 factors in model A
  Odds ratio, recurrent wheeze and a doctor-diagnosis of asthma, per 100 IU increase: 0.82
[2]; per 100 IU/day maternal intake
  Odds ratio, recurrent wheeze, further adjustment for race/ethnicity and college education: 0.81
[2]; per 100 IU/day maternal intake, Food Only
  Odds ratio, recurrent wheeze, per 100 IU/day, Food Only, Unadjusted: 0.81
[2]; per 100 IU/day maternal intake, Supplement Only
  Odds ratio, recurrent wheeze, per 100 IU/day, Supplement Only, Unadjusted: 0.82
[2]; per 100 IU/day maternal intake, Total
  Odds ratio, recurrent wheeze, per 100 IU/day, Total intake, Unadjusted: 0.81
[2]; per 100 IU/day, Food Only, adjusted for 12 factors
  Odds ratio, recurrent wheeze, per 100 IU/day, Food Only, Multivariate model A: 0.79
[2]; per 100 IU/day, Food Only, model A plus vitamin D from supplements
  Odds ratio, recurrent wheeze, per 100 IU/day, Food Only, Multivariate model B: 0.80
[2]; per 100 IU/day, Supplement Only, adjusted for 12 factors
  Odds ratio, recurrent wheeze, per 100 IU/day, Supplement Only, Multivariate model A: 0.82
[2]; per 100 IU/day, Supplement Only, model A plus vitamin D from foods
  Odds ratio, recurrent wheeze, per 100 IU/day, Supplement Only, Multivariate model B: 0.82
[2]; per 100 IU/day, Total, adjusted for 12 factors
  Odds ratio, recurrent wheeze, per 100 IU/day, Total, Multivariate model A: 0.80
[2]; per 100 IU/day, Total, model A plus maternal intake of calcium
  Odds ratio, recurrent wheeze, per 100 IU/day, Total, Multivariate model C: 0.79
[2]; per 100 IU/day, Total, model A plus maternal intake of retinol
  Odds ratio, recurrent wheeze, per 100 IU/day, Total, Multivariate model D: 0.81
[2]; [5]
  Odds ratio, recurrent wheeze, Multivariate model 1: 0.49
  Odds ratio, recurrent wheeze, Multivariate model 2: 0.47
[2]; quartile 2 of maternal intake (median 513 IU, range 446-562) vs quartile 1, n = 1,194 pairs
  Odds ratio, recurrent wheeze, Unadjusted: 0.55
[2]; [6]
  Odds ratio, recurrent wheeze, Multivariate model 1: 0.56
  Odds ratio, recurrent wheeze, Multivariate model 2: 0.54
[2]; quartile 3 (median 603 IU, range 563-658) vs quartile 1
  Odds ratio, recurrent wheeze, Unadjusted: 0.55
[2]; [7]
  Odds ratio, recurrent wheeze, Multivariate model 1: 0.41
  Odds ratio, recurrent wheeze, Multivariate model 2: 0.38
[2]; quartile 4 (median 724 IU, range 659-1,145) vs quartile 1 (median 356 IU)
  Odds ratio, recurrent wheeze, Unadjusted: 0.39
[3]; children at age 3 years
  Effect of maternal intake on risk of respiratory infections: did not affect risk
[3]; [5]
  Odds ratio, respiratory infection, Multivariate model 1: 0.73
  Odds ratio, respiratory infection, Multivariate model 2: 0.74
  Odds ratio, respiratory infection, Unadjusted: 0.68
[3]; [6]
  Odds ratio, respiratory infection, Multivariate model 1: 1.01
  Odds ratio, respiratory infection, Multivariate model 2: 1.01
  Odds ratio, respiratory infection, Unadjusted: 0.92
[3]; [7]
  Odds ratio, respiratory infection, Multivariate model 1: 0.74
  Odds ratio, respiratory infection, Multivariate model 2: 0.75
  Odds ratio, respiratory infection, Unadjusted: 0.68
[4]; children at age 3 years
  Effect of maternal intake on risk of early childhood eczema: did not affect risk
[4]; [5]
  Odds ratio, eczema, Multivariate model 1: 0.88
  Odds ratio, eczema, Multivariate model 2: 0.86
  Odds ratio, eczema, Unadjusted: 1.00
[4]; [6]
  Odds ratio, eczema, Multivariate model 1: 0.94
  Odds ratio, eczema, Multivariate model 2: 0.93
  Odds ratio, eczema, Unadjusted: 1.03
[4]; [7]
  Odds ratio, eczema, Multivariate model 1: 0.95
  Odds ratio, eczema, Multivariate model 2: 0.92
  Odds ratio, eczema, Unadjusted: 1.10
